Columns and labels:
[1] = tested on: cellular pERK in ASPC-1 (KRAS G12D) cells; assay: Cell based pERK assay, ASPC-1; settings: Homo sapiens, ASPC1; ASPC-1 (KRAS G12D), 2 hours incubation, HTRF phospho-ERK1/2; read-out: AsPC1 pERK EC50
Experimental: (§1) Compounds were tested in a 384-well assay format for their ability to inhibit cellular pERK in Kuramochi (WT KRAS), MIA-PaCa-2 (KRAS-G12C), ASPC-1 (KRAS G12D), and NCI-H441 (KRAS-G12V) cell-lines. Compounds were serially diluted (1:3) in DMSO. On day −1, 80 μL of cells were plated per well in the 384 well tissue-culture plates (Greiner: Cat #781080) to seed 5000 cells per wells of AsPC-1 or 7500 cells of MIA-PaCa-2, NCI-H441, and Kuramochi cell lines in RPMI (Corning: Cat #10-040-CM) with 10% fetal bovine serum (FBS) (HyClone: Cat #SH30071-03) and 1× penicillin-streptomycin-glutamate (PSG) (Corning: Cat #30-009-CI) for […] and Kuramochi cell lines and DMEM (Corning: Cat #15-018-CM) with 10% FBS and 1×PSG for MIA-PaCa-2 cell line. The plates were then incubated overnight at 37° C. and 5% CO2. On day 0, 400 nL of compound/well was added into the cell plates and mixed 5 times by pipetting using a Beckmann Biomek FX. The cell plates were then incubated for 2 hours at 37° C. and 5% CO2. HTRF Advanced Phospho-ERK1/2 (THR202/TYR204) Detection Kits (PerkinElmer: Cat #64AERPEG) were used to prepare the lysis and detection solution according to manufacturer protocol. Following the 2 hour incubation, 70 μL of medium was aspirated from the plates and 10 uL of lysis and detection solution was added to the plates using a Biotek EL406 washer and dispenser. Plates were sealed and stored overnight at room temperature. HTRF ratio (665 nm/615 nm) was read by Envision multimode reader (PerkinElmer) the next day. The TR-FRET ratios were normalized to a positive (saturating concentration of known inhibitor) and negative (DMSO) control and plotted against the log of compound concentration.

[2] = tested on: cellular pERK in MIA-PaCa-2 (KRAS-G12C) cells; assay: Cell based pERK assay, MIA-PaCa-2; settings: Homo sapiens; MIA-PaCa-2 (KRAS-G12C), 2 hours incubation, HTRF phospho-ERK1/2; read-out: MIAPaCa2 pERK EC50
Experimental: as §1

[3] = tested on: cellular pERK in Kuramochi (WT KRAS) cells; assay: Cell based pERK assay, Kuramochi; settings: Kuramochi (WT KRAS), 2 hours incubation, HTRF phospho-ERK1/2; read-out: Kuramochi pERK EC50
Experimental: as §1

[4] = tested on: cellular pERK in NCI-H441 (KRAS-G12V) cells; assay: Cell based pERK assay, NCI-H441; settings: Homo sapiens; NCI-H441 (KRAS-G12V), 2 hours incubation, HTRF phospho-ERK1/2; read-out: H441 PERK EC50
Experimental: as §1

Row | Compound | EC50 [1] | EC50 [2] | EC50 [3] | EC50 [4]
1 | C#Cc1c(F)ccc2cc(O)cc(-c3nc4c5c(nc(OC[C@@]67CCCN6C[C@H](F)C7)nc5c3F)N3C[C@@]5(F)CC[C@H](N5)[C@H]3CC4)c12 [Example 1-1, 4-((5aR,6S,9S)-1,9-difluoro-12-(((2R,7aS)-2-fluorotetrahydro-1H-pyrrolizin-7a(5H)-yl)methoxy)-4,5,5a,6,7,8,9,10-octahydro-3,10a,11,13,14-pentaaza-6,9-methanonaphtho[1,8-ab]heptalen-2-yl)-5-ethynyl-6-fluoronaphthalen-2-ol] | 38.2 nM | 3.27 nM | 2.68 nM | 4.93 nM
2 | C#Cc1c(F)ccc2cc(N)cc(-c3nc4c5c(nc(OC[C@@]67CCCN6C[C@H](F)C7)nc5c3F)N3C[C@@]5(F)CC[C@](F)(N5)[C@H]3CCC4)c12 [Example 4-2, 5-ethynyl-6-fluoro-4-((6aR,7R,10S)-1,7,10-trifluoro-13-(((2R,7aS)-2-fluorotetrahydro-1H-pyrrolizin-7a(5H)-yl)methoxy)-5,6,6a,7,8,9,10,11-octahydro-4H-3,11a,12,14,15-pentaaza-7,10-methanocyclohepta[4,5]cycloocta[1,2,3-de]naphthalen-2-yl)naphthalen-2-amine] | 20 nM |  | 2.89 nM | 3.04 nM
3 | C#Cc1c(F)ccc2cc(O)cc(-c3nc4c5c(nc(OCC67CCCN6CCC7)nc5c3F)N3C[C@@]5(F)CC[C@](F)(N5)[C@H]3CCC4)c12 [Example 4-5, 5-ethynyl-6-fluoro-4-((6aR,7R,10S)-1,7,10-trifluoro-13-((tetrahydro-1H-pyrrolizin-7a(5H)-yl)methoxy)-5,6,6a,7,8,9,10,11-octahydro-4H-3,11a,12,14,15-pentaaza-7,10-methanocyclohepta[4,5]cycloocta[1,2,3-de]naphthalen-2-yl)naphthalen-2-ol] | 10.1 nM | 0.397 nM | 6.47 nM | 
4 | N#Cc1c(F)ccc2cc(O)cc(-c3nc4c5c(nc(OCC67CCCN6CCC7)nc5c3F)N3C[C@@]5(F)CC[C@](F)(N5)[C@H]3CCC4)c12 [Example 4-9, 2-fluoro-6-hydroxy-8-((6aR,7R,10S)-1,7,10-trifluoro-13-((tetrahydro-1H-pyrrolizin-7a(5H)-yl)methoxy)-5,6,6a,7,8,9,10,11-octahydro-4H-3,11a,12,14,15-pentaaza-7,10-methanocyclohepta[4,5]cycloocta[1,2,3-de]naphthalen-2-yl)-1-naphthonitrile] | 323 nM | 6.08 nM | 13.2 nM | 
5 | C#Cc1c(F)ccc2c(F)c(N)cc(-c3nc4c5c(nc(OCC67CCCN6CCC7)nc5c3F)N3C[C@@]5(F)CC[C@](F)(N5)[C@H]3CCC4)c12 [Example 4-18, 5-ethynyl-1,6-difluoro-4-((6aR,7R,10S)-1,7,10-trifluoro-13-((tetrahydro-1H-pyrrolizin-7a(5H)-yl)methoxy)-5,6,6a,7,8,9,10,11-octahydro-4H-3,11a,12,14,15-pentaaza-7,10-methanocyclohepta[4,5]cycloocta[1,2,3-de]naphthalen-2-yl)naphthalen-2-amine] | 388 nM | 22.3 nM | 13.3 nM | 
6 | Oc1cc(-c2nc3c4c(nc(OCC56CCCN5CCC6)nc4c2F)N2C[C@@]4(F)CC[C@](F)(N4)[C@H]2CCC3)c2c(F)c(F)ccc2c1 [Example 4-22, 5,6-difluoro-4-[(4S,7R,8R)-4,7,15-trifluoro-18-(1,2,3,5,6,7-hexahydropyrrolizin-8-ylmethoxy)-2,13,17,19,21-pentazapentacyclo[10.7.1.14,7.02,8.016,20]henicosa-1(19),12(20),13,15,17-pentaen-14-yl]naphthalen-2-ol] | 83.4 nM | 2.03 nM | 4.1 nM | 
7 | C#Cc1c(F)ccc2cccc(-c3nc4c5c(nc(OCC67CCCN6CCC7)nc5c3F)N3C[C@@]5(F)CC[C@](F)(N5)[C@@H]3[C@@H](C)C4)c12 [Example 4-31, (5S,5aS,6R,9S)-2-(8-ethynyl-7-fluoronaphthalen-1-yl)-1,6,9-trifluoro-5-methyl-12-((tetrahydro-1H-pyrrolizin-7a(5H)-yl)methoxy)-4,5,5a,6,7,8,9,10-octahydro-3,10a,11,13,14-pentaaza-6,9-methanonaphtho[1,8-ab]heptalene] | 38.1 nM | 2.19 nM | 1.36 nM | 
8 | C#Cc1c(F)c(F)cc2cc(O)cc(-c3nc4c5c(nc(OCC67CCCN6CCC7)nc5c3F)N3C[C@@]5(F)CC[C@](F)(N5)[C@@H]3[C@@H](C)C4)c12 [Example 4-33, 5-ethynyl-6,7-difluoro-4-((5S,5aS,6R,9S)-1,6,9-trifluoro-5-methyl-12-((tetrahydro-1H-pyrrolizin-7a(5H)-yl)methoxy)-4,5,5a,6,7,8,9,10-octahydro-3,10a,11,13,14-pentaaza-6,9-methanonaphtho[1,8-ab]heptalen-2-yl)naphthalen-2-ol] | 12.4 nM | 0.286 nM | 8.68 nM | 
9 | C#Cc1c(F)ccc2cc(N)cc(-c3nc4c5c(nc(OC[C@@]67CCCN6C[C@H](F)C7)nc5c3F)N3C[C@@]5(F)CC[C@H](N5)[C@@H]3[C@@H](C)[C@H]4C)c12 [Example 4-37, 4-((4R,5S,5aS,6S,9S)-1,9-difluoro-12-(((2R,7aS)-2-fluorotetrahydro-1H-pyrrolizin-7a(5H)-yl)methoxy)-4,5-dimethyl-4,5,5a,6,7,8,9,10-octahydro-3,10a,11,13,14-pentaaza-6,9-methanonaphtho[1,8-ab]heptalen-2-yl)-5-ethynyl-6-fluoronaphthalen-2-amine] | 4.65 nM | 0.153 nM |  | 0.475 nM
10 | Nc1cc(-c2nc3c4c(nc(OCC56CCCN5CCC6)nc4c2F)N2C[C@@]4(F)CC[C@](F)(N4)[C@H]2CCC3)c2c(Cl)c(F)ccc2c1 [Example 5-2, 5-chloro-6-fluoro-4-((6aR,7R,10S)-1,7,10-trifluoro-13-((tetrahydro-1H-pyrrolizin-7a(5H)-yl)methoxy)-5,6,6a,7,8,9,10,11-octahydro-4H-3,11a,12,14,15-pentaaza-7,10-methanocyclohepta[4,5]cycloocta[1,2,3-de]naphthalen-2-yl)naphthalen-2-amine] | 338 nM | 17.7 nM | 4.4 nM | 
11 | CCc1c(F)ccc2cc(N)cc(-c3nc4c5c(nc(OCC67CCCN6CCC7)nc5c3F)N3C[C@@]5(F)CC[C@](F)(N5)[C@H]3CCC4)c12 [Example 6-2, 5-ethyl-6-fluoro-4-((6aR,7R,10S)-1,7,10-trifluoro-13-((tetrahydro-1H-pyrrolizin-7a(5H)-yl)methoxy)-5,6,6a,7,8,9,10,11-octahydro-4H-3,11a,12,14,15-pentaaza-7,10-methanocyclohepta[4,5]cycloocta[1,2,3-de]naphthalen-2-yl)naphthalen-2-amine] | 456 nM | 22.6 nM | 6.48 nM | 
12 | CCc1c(F)ccc2cc(O)cc(-c3nc4c5c(nc(OCC67CCCN6CCC7)nc5c3F)N3C[C@@]5(F)CC[C@](F)(N5)[C@@H]3[C@@H](C)C4)c12 [Example 6-3, 5-ethyl-6-fluoro-4-((8S,8aS,9R,12S)-4,9,12-trifluoro-8-methyl-2-((tetrahydro-1H-pyrrolizin-7a(5H)-yl)methoxy)-7,8,8a,9,10,11,12,13-octahydro-1,3,6,13a,14-pentaaza-9,12-methanonaphtho[1,8-ab]heptalen-5-yl)naphthalen-2-ol] | 20 nM | 0.513 nM | 6.62 nM | 
13 | CCc1c(F)ccc2cc(N)cc(-c3nc4c5c(nc(OCC67CCCN6CCC7)nc5c3F)N3C[C@@]5(F)CC[C@](F)(N5)[C@@H]3[C@@H](C)C4)c12 [Example 6-4, 5-ethyl-6-fluoro-4-((8S,8aS,9R,12S)-4,9,12-trifluoro-8-methyl-2-((tetrahydro-1H-pyrrolizin-7a(5H)-yl)methoxy)-7,8,8a,9,10,11,12,13-octahydro-1,3,6,13a,14-pentaaza-9,12-methanonaphtho[1,8-ab]heptalen-5-yl)naphthalen-2-amine] | 197 nM | 12.8 nM | 8.24 nM | 
